From ChEMBL document CHEMBL5500399, “Design, Synthesis, and Biological Evaluation of 1,2,4-Oxadiazole Derivatives Containing an Aryl Carboxylic Acid Moiety as Potent Sarbecovirus Papain-like Protease Inhibitors” (J Med Chem, 2024)

Key:
SARS-CoV-2 [1] = experiment: microbe, parasite or virus in culture; details: Severe acute respiratory syndrome coronavirus 2, 2019-nCoV, Vero C1008
SARS-CoV-2 [2] = experiment: microbe, parasite or virus in culture; details: Severe acute respiratory syndrome coronavirus 2, Omicron BA.1, Vero C1008

SMILES	EC50 (SARS-CoV-2 [1]) [µM]	EC50 (SARS-CoV-2 [2]) [µM]
CC(c1nc(-c2ccc(-c3ccc(C(=O)O)s3)cc2)no1)c1cccc2ccccc12 (centres undefined)	5.4	25.2
Cc1ccc(-c2noc(C(C)c3ccc(-c4ccccc4)c(F)c3)n2)cc1NCc1ccc(C(=O)O)s1 (racemic)	4.3	79.8
